Reference: patent publication US9604975B2, “Indolyl-pyridone derivatives having checkpoint kinase 1 inhibitory activity” (Vernalis (R&D) Ltd., priority 2009, dated 2017)
pIC50: −log10 of the molar value.

molecular target: T1, CHK1 (Homo sapiens, UniProt O14757); experiment: CHK1 Enzyme Assay (phosphorylation of Chktide peptide, 33P-ATP filter assay); format: biochemical; settings: 12.5 nM His-CHK1, 0.01 mM ATP, 40 minutes at 30° C.; read-out: CHK1 Enzyme Activity (IC50 range)
T1 construct: His; purchased Invitrogen
T1 sequence (O14757 1-476): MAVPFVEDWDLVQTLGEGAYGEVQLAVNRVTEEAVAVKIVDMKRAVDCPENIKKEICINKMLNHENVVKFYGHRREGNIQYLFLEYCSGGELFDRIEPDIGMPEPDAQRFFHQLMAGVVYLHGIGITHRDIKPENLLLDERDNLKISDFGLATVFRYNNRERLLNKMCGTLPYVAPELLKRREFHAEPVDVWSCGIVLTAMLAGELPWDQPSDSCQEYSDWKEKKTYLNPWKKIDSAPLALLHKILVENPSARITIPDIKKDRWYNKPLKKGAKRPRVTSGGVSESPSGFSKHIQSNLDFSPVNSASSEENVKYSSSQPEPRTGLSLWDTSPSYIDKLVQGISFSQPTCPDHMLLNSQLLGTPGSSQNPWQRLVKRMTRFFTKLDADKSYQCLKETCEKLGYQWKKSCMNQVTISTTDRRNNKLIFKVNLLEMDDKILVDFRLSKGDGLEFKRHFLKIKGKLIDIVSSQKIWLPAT
In short: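 Filter-binding radiometric readout of 33P incorporation into Chktide (14.8 μM), after a 40 min, 30 °C reaction at pH 7.5 (50 mM Hepes-NaOH, 0.1 mg/mL BSA). The reaction contained 12.5 nM His-tagged CHK1, inhibitor and 0.01 mM cold ATP plus labelled ATP.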

Row | Compound | pIC50
1 | CN(C)CCOc1ccc2[nH]c(-c3cc(NC(=O)c4cnn(Cc5ccccc5)c4)c[nH]c3=O)cc2c1 [Example 142, 1-Benzyl-1H-pyrazole-4-carboxylic acid {5-[5-(2-dimethylamino-ethoxy)-1H-indol-2-yl]-6-oxo-1,6-dihydro-pyridin-3-yl}-amide] | > 7.00
2 | O=C(Nc1c[nH]c(=O)c(-c2cc3cc(OCCCN4CCCCC4)ccc3[nH]2)c1)c1cnn(Cc2ccccc2)c1 [Example 143, 1-Benzyl-1H-pyrazole-4-carboxylic acid {6-oxo-5-[5-(3-piperidin-1-yl-propoxy)-1H-indol-2-yl]-1,6-dihydro-pyridin-3-yl}-amide] | > 7.00
3 | O=C(Nc1c[nH]c(=O)c(-c2cc3cc(OCCN4CCCC4)ccc3[nH]2)c1)c1cnn(Cc2ccccc2)c1 [Example 144, 1-Benzyl-1H-pyrazole-4carboxylic acid {6-oxo-5-[5-(2-pyrrolidin-1-yl-ethoxy)-1H-indol-2-yl]-1,6-dihydro-pyridin-3-yl}-amide] | > 7.00
4 | CN1CCN(CCOc2ccc3[nH]c(-c4cc(NC(=O)c5cnn(Cc6ccccc6)c5)c[nH]c4=O)cc3c2)CC1 [Example 146, 1-Benzyl-1H-pyrazole-4-carboxylic acid (5-{5-[2-(4-methyl-piperazin-1-yl)-ethoxy]-1H-indol-2-yl}-6-oxo-1,6-dihydro-pyridin-3-yl)-amide] | > 7.00
5 | CC1CN(CCOc2ccc3[nH]c(-c4cc(NC(=O)c5cnn(Cc6ccccc6)c5)c[nH]c4=O)cc3c2)CC(C)O1 (centres unmarked) [Example 147, 1-Benzyl-1H-pyrazole-4-carboxylic acid (5-{5-[2-(2,6-dimethyl-morpholin-4-yl)-ethoxy]-1H-indol-2-yl}-6oxo-1,6-dihydro-pyridin-3-yl)-amide] | > 7.00
6 | O=C(Nc1c[nH]c(=O)c(-c2cc3cc(OCCCN4CCCC4=O)ccc3[nH]2)c1)c1cnn(Cc2ccccc2)c1 [Example 148, 1-Benzyl-1H-pyrazole-4-carboxylic acid (6-oxo-5-{5-[3-(2-oxo-pyrrolidin-1-yl)-propoxy]-1H-indole-2-yl}-1,6-dihydro-pyridin-3-yl)-amide] | > 7.00
7 | CC(C)(C)c1ccc(Cn2cc(C(=O)Nc3c[nH]c(=O)c(-c4cc5cc(OCCN6CCCCC6)ccc5[nH]4)c3)cn2)cc1 [Example 151, 1-(4-tert-Butylbenzyl)-1H-pyrazole-4-carboxylic acid {5-[5-(2-piperidin-1-ylethoxy)-1H-indol-2-yl)-6-oxo-1,6-dihydropyridin-3-yl}-amide] | > 7.00
8 | CC(C)(C)c1ccc(Cn2cc(C(=O)Nc3c[nH]c(=O)c(-c4cc5cc(OCCCN6CCCCC6)ccc5[nH]4)c3)cn2)cc1 [Example 153, 1-(4-tert-Butylbenzyl)-1H-pyrazole-4-carboxylic acid-{6-oxo-5-[5-(3-piperidin-1-ylpropoxy)-1H-indol-2-yl]-1,6-dihydropyridin-3-yl}-amide] | > 7.00
9 | CCN(CC)CCOc1ccc2[nH]c(-c3cc(NC(=O)c4cnn(Cc5ccc(C(C)C)cc5)c4)c[nH]c3=O)cc2c1 [Example 155, 1-(4-Isopropylbenzyl)-1H-pyrazole-4-carboxylic acid {5-[5-(2-diethylaminoethoxy)-1H-indol-2-yl)-6-oxo-1,6-dihydropyridin-3-yl}-amide] | > 7.00
10 | CN(C)CCCOc1ccc2[nH]c(-c3cc(NC(=O)c4cnn(Cc5ccc(C(C)(C)C)cc5)c4)c[nH]c3=O)cc2c1 [Example 156, 1-(4-tert-butylbenzyl)-1H-pyrazole-4-carboxylic acid {5-[5-(3-dimethylaminopropoxy)-1H-indol-2-yl)-6-oxo-1,6-dihydropyridin-3-yl}-amide] | > 7.00
11 | CC(C)c1ccc(Cn2cc(C(=O)Nc3c[nH]c(=O)c(-c4cc5cc(OCCCN(C)C)ccc5[nH]4)c3)cn2)cc1 [Example 157, 1-(4-Isopropylbenzyl)-1H-pyrazole-4-carboxylic acid {5-[5-(3-dimethylaminopropoxy)-1H-indol-2-yl)-6-oxo-1,6-dihydropyridin-3-yl}-amide] | > 7.00
12 | CN(C)CCOc1cccc2[nH]c(-c3cc(NC(=O)c4cnn(Cc5ccccc5)c4)c[nH]c3=O)cc12 [Example 159, 1-Benzyl-1H-pyrazole-4-carboxylic acid {5-[4-(2-dimethylamino-ethoxy)-1H-indol-2-yl]-6-oxo-1,6-dihydro-pyridin-3-yl}-amide] | > 7.00
13 | C[C@@H](c1ccccc1)n1cc(C(=O)Nc2c[nH]c(=O)c(-c3cc4ccccc4[nH]3)c2)cn1 [Example 160, 1-((S)-1-Phenyl-ethyl)-1H-pyrazole-4-carboxylic acid [5-(1H-indol-2-yl)-6-oxo-1,6-dihydro-pyridin-3-yl]-amide] | 6.30 to 7.00
14 | C[C@@H](c1ccccc1)n1cc(C(=O)Nc2c[nH]c(=O)c(-c3cc4cc(CN5CCC(F)CC5)ccc4[nH]3)c2)cn1 [Example 164, 1-((S)-1-Phenyl-ethyl)-1H-pyrazole-4-carboxylic acid {5-[5-(4-fluoro-piperidin-1-ylmethyl)-1H-indol-2-yl]-6-oxo-1,6-dihydro-pyridin-3-yl}-amide] | > 7.00
15 | CC1CCN(Cc2ccc3[nH]c(-c4cc(NC(=O)c5cnn([C@@H](C)c6ccccc6)c5)c[nH]c4=O)cc3c2)CC1 [Example 165, 1-((S)-1-Phenyl-ethyl)-1H-pyrazole-4-carboxylic acid {5-[5-(4-methyl-piperidin-1-ylmethyl)-1H-indol-2-yl]-6-oxo-1,6-dihydro-pyridin-3-yl}-amide] | > 7.00
16 | CC1CCN(Cc2ccc3[nH]c(-c4cc(NC(=O)c5cnn([C@H](C)c6ccccc6)c5)c[nH]c4=O)cc3c2)CC1 [Example 167, 1-((R)-1-Phenyl-ethyl)-1H-pyrazole-4-carboxylic acid {5-[5-(4-methyl-piperidin-1-ylmethyl)-1H-indol-2-yl]-6-oxo-1,6-dihydro-pyridin-3-yl}-amide] | > 7.00

Next, values leading:

Row | pIC50 | Compound
17 | > 7.00 | CN(C)CCCOc1ccc2[nH]c(-c3cc(NC(=O)c4cnn(Cc5ccccc5)c4)c[nH]c3=O)cc2c1 [Example 145, 1-Benzyl-1H-pyrazole-4-carboxylic acid {5-[5-(3-dimethylamino-propoxy)-1H-indol-2-yl]-6oxo-1,6-dihydro-pyridin-3-yl}-amide]
18 | > 7.00 | O=C(Nc1c[nH]c(=O)c(-c2cc3cc(OCCN4CCCCC4)ccc3[nH]2)c1)c1cnn(Cc2ccccc2)c1 [Example 149, 1-Benzyl-1H-pyrazole-4-carboxylic acid {6-oxo-5-[5-(2-piperidin-1-yl-ethoxy)-1H-indol-2-yl]-1,6-dihydro-pyridin-3-yl}-amide]
19 | > 7.00 | CC(C)c1ccc(Cn2cc(C(=O)Nc3c[nH]c(=O)c(-c4cc5cc(OCCCN6CCCCC6)ccc5[nH]4)c3)cn2)cc1 [Example 150, 1-(4-Isopropylbenzyl)-1H-pyrazole-4-carboxylic acid-{6-oxo-5-[5-(3-piperidin-1-ylpropoxy)-1H-indol-2-yl]-1,6-dihydropyridin-3-yl}-amide]
20 | > 7.00 | CC(C)c1ccc(Cn2cc(C(=O)Nc3c[nH]c(=O)c(-c4cc5cc(OCCN6CCCCC6)ccc5[nH]4)c3)cn2)cc1 [Example 152, 1-(4-Isopropylbenzyl)-1H-pyrazole-4-carboxylic acid {5-[5-(2-piperidin-1-ylethoxy)-1H-indol-2-yl)-6-oxo-1,6-dihydropyridin-3-yl}-amide]
21 | 5.82 to 6.30 | CCN(CC)CCOc1ccc2[nH]c(-c3cc(NC(=O)c4cnn(Cc5ccc(C(C)(C)C)cc5)c4)c[nH]c3=O)cc2c1 [Example 154]
22 | > 7.00 | NCCOc1cccc2[nH]c(-c3cc(NC(=O)c4cnn(Cc5ccccc5)c4)c[nH]c3=O)cc12 [Example 158, 1-Benzyl-1H-pyrazole-4-carboxylic acid {5-[4-(2-amino-ethoxy)-1H-indol-2-yl]-6-oxo-1,6-dihydro-pyridin-3-yl}-amide]
23 | > 7.00 | C[C@H](c1ccccc1)n1cc(C(=O)Nc2c[nH]c(=O)c(-c3cc4ccccc4[nH]3)c2)cn1 [Example 161, 1-((R)-1-Phenyl-ethyl)-1H-pyrazole-4-carboxylic acid [5-(1H-indol-2-yl)-6-oxo-1,6-dihydro-pyridin-3-yl]-amide]
24 | > 7.00 | C[C@@H](c1ccccc1)n1cc(C(=O)Nc2c[nH]c(=O)c(-c3cc4cc(CN5CCCCC5)ccc4[nH]3)c2)cn1 [Example 162, 1-((S)-1-Phenyl-ethyl)-1H-pyrazole-4carboxylic acid [6-oxo-5-(5-piperidin-1-ylmethyl-1H-indol-2-yl)-1,6-dihydro-pyridin-3-yl]-amide]
25 | > 7.00 | C[C@@H]1CN(Cc2ccc3[nH]c(-c4cc(NC(=O)c5cnn([C@@H](C)c6ccccc6)c5)c[nH]c4=O)cc3c2)C[C@H](C)O1 [Example 163, 1-((S)-1-Phenyl-ethyl)-1H-pyrazole-4-carboxylic acid {5-[5-(cis-2,6-dimethyl-morpholin-4-ylmethyl)-1H-indol-2-yl]-6-oxo-1,6-dihydro-pyridin-3-yl}-amide]
26 | > 7.00 | C[C@H](c1ccccc1)n1cc(C(=O)Nc2c[nH]c(=O)c(-c3cc4cc(CN5CCCCC5)ccc4[nH]3)c2)cn1 [Example 168, 1-((R)-1-Phenyl-ethyl)-1H-pyrazole-4carboxylic acid [6-oxo-5-(5-piperidin-1-ylmethyl-1H-indol-2-yl)-1,6-dihydro-pyridin-3-yl]-amide]
